Measurements taken from PubChem BioAssay AID1259408 (Genetic Toxicology Data Bank (GENE-TOX), 2018).
The source made the active and inactive calls. The rule behind the calls is not given here.

System: GENE-TOX genotoxicity assays, various organisms and cells
Experiment: GENE-TOX mutagenicity studies
Conditions: for call: Assay Type: In vivo carcinogenicity studies
[1] = Species/Cell Type: Human lymphocytes, Assay Type: Sister-chromatid exchange (SCE) in vitro, Assay Code: SCL+, Evaluation Type: Evaluation B (Post-1980)
[2] = Species/Cell Type: Human lymphocytes, Assay Type: Sister-chromatid exchange (SCE) in vitro, Assay Code: SCLT, Evaluation Type: Evaluation B (Post-1980)
[3] = Species/Cell Type: Human, Assay Type: Sister-chromatid exchange (SCE) in vitro, Assay Code: SC1+, Evaluation Type: Evaluation B (Post-1980)
[4] = Species/Cell Type: Human, Assay Type: Sister-chromatid exchange (SCE) in vitro, Assay Code: SC1T, Evaluation Type: Evaluation B (Post-1980)
[5] = Species/Cell Type: Salmonella typhimurium (one or more of the five standard strains: TA98, TA100, TA1535, TA1537, and TA1538), Assay Type: Histidine reverse gene mutation, Ames assay, Assay Code: SALT, Evaluation Type: Evaluation A (Pre-1980)
[6] = Species/Cell Type: Nonhuman, Assay Code: CCG+, Evaluation Type: Evaluation A (Pre-1980)
[7] = Species/Cell Type: Human diploid fibroblasts, Assay Type: Unscheduled DNA synthesis (UDS) in vitro, DNA effects, Assay Code: UDH-, Evaluation Type: Evaluation A (Pre-1980)
[8] = Species/Cell Type: Mammalian polychromatic erythrocytes, Assay Type: Micronucleus test, chromosome aberrations, Assay Code: MNT+, Evaluation Type: Evaluation B (Post-1980)
[9] = Species/Cell Type: Saccharomyces cerevisiae, Assay Type: Mitotic recombination or gene conversion, Assay Code: YEH-, Evaluation Type: Evaluation A (Pre-1980)
[10] = Species/Cell Type: Chinese hamster lung (V79) cells, Assay Type: Forward gene mutation at the HPRT or ouabain locus, Assay Code: V79+, Evaluation Type: Evaluation A (Pre-1980)
[11] = Species/Cell Type: Mouse prostate cells, Assay Type: Cell transformation, Assay Code: CTM-, Evaluation Type: Evaluation A (Pre-1980)
[12] = Species/Cell Type: Syrian hamster embryo (SHE) cells, Assay Type: Cell transformation, clonal assay, Assay Code: CTC+, Evaluation Type: Evaluation A (Pre-1980)
[13] = Species/Cell Type: Nonhuman, Assay Type: Sister-chromatid exchange (SCE) in vitro, Assay Code: SC2T, Evaluation Type: Evaluation B (Post-1980)
[14] = Species/Cell Type: Saccharomyces cerevisiae, Assay Type: Mitotic recombination or gene conversion, Assay Code: YEC+, Evaluation Type: Evaluation A (Pre-1980)
[15] = Species/Cell Type: Salmonella typhimurium (one or more of the five standard strains: TA98, TA100, TA1535, TA1537, and TA1538), Assay Type: Histidine reverse gene mutation, Ames assay, Assay Code: SAL+, Evaluation Type: Evaluation A (Pre-1980)
[16] = Species/Cell Type: Nonhuman, Assay Type: Sister-chromatid exchange (SCE) in vitro, Assay Code: SC2+D, Dose Response: With dose response, Evaluation Type: Evaluation B (Post-1980)
[17] = Species/Cell Type: Drosophila melanogaster, Assay Type: Sex-linked recessive lethal gene mutation, Assay Code: SRL+, Evaluation Type: Evaluation A (Pre-1980)

CC[C@]1(O)CC2CN(CCc3c([nH]c4ccccc34)[C@@](C(=O)OC)(c3cc4c(cc3OC)N(C=O)[C@H]3[C@@](O)(C(=O)OC)[C@H](OC(C)=O)[C@]5(CC)C=CCN6CC[C@]43[C@@H]65)C2)C1 (stereo partly drawn)
mutagenic call (Species/Cell Type: Human lymphocytes, Assay Type: Sister-chromatid exchange (SCE) in vitro, Assay Code: SCL+, Evaluation Type: Evaluation A (Pre-1980)): active; positive
mutagenic call [1]: active; positive
mutagenic call [2]: no conclusion
mutagenic call [3]: active; positive
mutagenic call [4]: no conclusion
mutagenic call (Species/Cell Type: Mammalian polychromatic erythrocytes, Assay Type: Micronucleus test, chromosome aberrations, Assay Code: MNT+, Evaluation Type: Evaluation A (Pre-1980)): active; positive
mutagenic call (Species/Cell Type: Mouse (C3H/10T1/2) cells, Assay Type: Cell transformation, Assay Code: CTH-, Evaluation Type: Evaluation A (Pre-1980)): inactive; negative
mutagenic call (Species/Cell Type: Nonhuman, Assay Type: Sister-chromatid exchange (SCE) in vitro, Assay Code: SC2+, Evaluation Type: Evaluation B (Post-1980)): active; positive
mutagenic call (Species/Cell Type: Nonhuman, Assay Type: Sister-chromatid exchange (SCE) in vivo, Assay Code: SC3T, Evaluation Type: Evaluation B (Post-1980)): no conclusion

CCCCNc1ccc(C(=O)OCCN(C)C)cc1
mutagenic call [5]: no conclusion

C=CC(OC(C)=O)c1ccccc1 (stereo not drawn)
mutagenic call [5]: no conclusion

C[C@@H]1CCCCN1N=O
call [6]: active; positive

CC1(C)C(C=C(Cl)Cl)C1C(=O)OC(C#N)c1cccc(Oc2ccccc2)c1 (stereo not drawn)
mutagenic call [7]: inactive; negative
mutagenic call [8]: active; positive
mutagenic call [9]: inactive; negative

Oc1cc2cc3ccccc3cc2c2ccccc12
mutagenic call [10]: active; positive
mutagenic call [11]: inactive; negative
mutagenic call [12]: active; positive

CCCCC/C=C\C/C=C\C/C=C\C/C=C\CCCC(=O)O
mutagenic call [4]: no conclusion
mutagenic call (Species/Cell Type: Mammalian polychromatic erythrocytes, Assay Type: Micronucleus test, chromosome aberrations, Assay Code: MNTT, Evaluation Type: Evaluation B (Post-1980)): no conclusion
mutagenic call [13]: no conclusion

C[C@]1(O)CC[C@H]2[C@@H]3CCC4=CC(=O)CC[C@]4(C)[C@@]3(F)[C@@H](O)C[C@@]21C
mutagenic call (Species/Cell Type: Human, Sex: Male, Assay Type: Sperm morphology, Assay Code: SPHT, Evaluation Type: Evaluation A (Pre-1980)): no conclusion

C[CH2][Hg][S]c1ccccc1C(=O)O
mutagenic call [14]: active; positive

O=c1[nH]c(=O)n([C@H]2C[C@H](O)[C@@H](COP(=O)(O)O)O2)cc1[N+](=O)[O-]
mutagenic call (Species/Cell Type: Human lymphocytes, Assay Type: Sister-chromatid exchange (SCE) in vitro, Assay Code: SCL+D, Dose Response: With dose response, Evaluation Type: Evaluation B (Post-1980)): active; positive
mutagenic call (Species/Cell Type: Human, Assay Type: Sister-chromatid exchange (SCE) in vitro, Assay Code: SC1+D, Dose Response: With dose response, Evaluation Type: Evaluation B (Post-1980)): active; positive

C=C(C)c1ccccc1
mutagenic call [1]: active; positive
mutagenic call [3]: active; positive

CC(=O)N(O)c1ccc(/C=C\c2ccccc2)cc1
mutagenic call (Species/Cell Type: Human diploid fibroblasts, Assay Type: Unscheduled DNA synthesis (UDS) in vitro, DNA effects, Assay Code: UDH+, Evaluation Type: Evaluation A (Pre-1980)): active; positive
call [6]: active; positive

c1ccc2c3c(ccc2c1)-c1cccc2cccc-3c12
call [6]: active; positive

COc1ccc2nc3cc(Cl)ccc3c(NCCCNCCCl)c2c1
mutagenic call (Species/Cell Type: Chinese hamster ovary (CHO) cells, Assay Type: Forward gene mutation at the HPRT locus, Assay Code: CHO+D, Dose Response: With dose response, Evaluation Type: Evaluation A (Pre-1980)): active; positive
mutagenic call [7]: inactive; negative
call (Species/Cell Type: Nonhuman, Assay Code: CCGT, Evaluation Type: Evaluation A (Pre-1980)): no conclusion
mutagenic call (Species/Cell Type: Saccharomyces cerevisiae, Assay Type: Forward and reverse gene mutation, mitotic recombination and gene conversion, host-mediated assay, Assay Code: HME+, Evaluation Type: Evaluation A (Pre-1980)): active; positive
mutagenic call [14]: active; positive
mutagenic call [15]: active; positive

C1=Cc2cc3ccc4cccc5ccc(c2CC1)c3c45
mutagenic call [11]: inactive; negative

O=C(O)c1ccc([N+](=O)[O-])cc1
mutagenic call (Species/Cell Type: Salmonella typhimurium, Assay Type: Forward and reverse gene mutation, host-mediated assay, Assay Code: HMA-, Evaluation Type: Evaluation A (Pre-1980)): inactive; negative

C[C@]12CC[C@@H](O)C[C@@H]1CC[C@@H]1[C@@H]2CC[C@]2(C)C(=O)CC[C@@H]12
mutagenic call (Species/Cell Type: Mouse, Sex: Male, Assay Type: Sperm morphology, Assay Code: SPI-, Evaluation Type: Evaluation A (Pre-1980)): inactive; negative

N[C@@H](CCC(=O)N[C@@H](CS)C(=O)NCC(=O)O)C(=O)O
mutagenic call [2]: no conclusion
mutagenic call [4]: no conclusion
mutagenic call [16]: active; positive

CCCCCC(=O)C(CCCC)c1oc(=O)c(CCCC)c(O)c1CCCC (stereo not drawn)
mutagenic call [2]: no conclusion
mutagenic call [4]: no conclusion

CCSCCSP(=S)(OC)OC
mutagenic call (Species/Cell Type: Mammalian polychromatic erythrocytes, Assay Type: Micronucleus test, chromosome aberrations, Assay Code: MNT+U, Dose Response: Unconfirmed positive response, Evaluation Type: Evaluation B (Post-1980)): active; positive

CCCCCCCCO
mutagenic call [13]: no conclusion

CN1CCN(N=O)CC1
mutagenic call [10]: active; positive
mutagenic call [17]: active; positive
mutagenic call [5]: no conclusion
mutagenic call (Species/Cell Type: Salmonella typhimurium, Assay Type: Forward and reverse gene mutation, host-mediated assay, Assay Code: HMA+, Evaluation Type: Evaluation A (Pre-1980)): active; positive

C[C@H](N)C(=O)c1ccccc1
mutagenic call [8]: active; positive

Nc1ccc2c(S(=O)(=O)O)cccc2c1S(=O)(=O)O
mutagenic call [5]: no conclusion

c1ccc2c(c1)-c1cc3ccc4ccccc4c3cc1C1OC21 (stereo not drawn)
mutagenic call [10]: active; positive
mutagenic call (Species/Cell Type: Human diploid fibroblasts, Assay Type: Unscheduled DNA synthesis (UDS) in vitro, DNA effects, Assay Code: UDHT, Evaluation Type: Evaluation A (Pre-1980)): no conclusion
mutagenic call (Species/Cell Type: Mouse prostate cells, Assay Type: Cell transformation, Assay Code: CTM+D, Dose Response: With dose response, Evaluation Type: Evaluation A (Pre-1980)): active; positive
call (Species/Cell Type: Nonhuman, Assay Code: CCG+L, Evaluation Type: Evaluation A (Pre-1980)): active; positive
mutagenic call [16]: active; positive
mutagenic call [15]: active; positive
mutagenic call [12]: active; positive

O=c1[nH]cc(Br)c(=O)[nH]1
mutagenic call (Species/Cell Type: Hordeum vulgare (barley), Assay Type: Gene mutation, Assay Code: HOM+D, Dose Response: With dose response, Evaluation Type: Evaluation A (Pre-1980)): active; positive
mutagenic call [9]: inactive; negative
mutagenic call (Species/Cell Type: Vicia faba, Assay Type: Chromosome aberrations, Assay Code: VIC+, Evaluation Type: Evaluation A (Pre-1980)): active; positive

O=P(N1C2COCC21)(N1C2COCC21)N1C2COCC21 (stereo not drawn)
mutagenic call [17]: active; positive

COC(=O)COc1ccc(Cl)cc1CCl (tested in a mixture with another compound)
mutagenic call (Species/Cell Type: Saccharomyces cerevisiae, Assay Type: Reverse gene mutation, Assay Code: YERT, Evaluation Type: Evaluation A (Pre-1980)): no conclusion

Oc1ccc2cccnc2c1
mutagenic call (Species/Cell Type: Salmonella typhimurium (one or more of the five standard strains: TA98, TA100, TA1535, TA1537, and TA1538), Assay Type: Histidine reverse gene mutation, Ames assay, Assay Code: SAL-, Evaluation Type: Evaluation A (Pre-1980)): inactive; negative

[O]=[Cd]
call [6]: active; positive

CN(CCCCOC[C@H](N)C(=O)O)N=O
mutagenic call (Species/Cell Type: Escherichia coli polA (W3110 vs P3478), Assay Type: Rec-assay, DNA effects (bacterial DNA repair), Assay Code: RE2-, Evaluation Type: Evaluation A (Pre-1980)): inactive; negative
mutagenic call (Species/Cell Type: Escherichia coli polA (W3119 vs P3478), Assay Type: Rec-assay, DNA effects (bacterial DNA repair), Assay Code: RE1T, Evaluation Type: Evaluation A (Pre-1980)): no conclusion
